Assay results taken from the OligoGym collection.
Several values for one entry are separate records, joined by “and”; a condition that tells them apart may be missing. Equal values may be shown once. After the bases stand the sugars from the 5' end (letter, count) and the backbone: PS all phosphorothioate, else s phosphorothioate and o phosphodiester by linkage. Methylation of C is not given here. e = 2'-O-(2-methoxyethyl) (MOE); k = constrained ethyl (cEt); d = 2'-deoxy (DNA)

target: IRF4; conditions: ASO, MM.1R, 0.0625 µM

Sequence	target mRNA inhibition [%]
AAGCAGTGATGTCAGG (sugars kkddddddddddkeke, PS)	8

same assay, conditions: ASO, MM.1R, 0.25 µM

Sequence	target mRNA inhibition [%]
AAGCAGTGATGTCAGG (sugars kkddddddddddkeke, PS)	22

same assay, conditions: ASO, MM.1R, 1 µM

Sequence	target mRNA inhibition
GAAGTTTACACTGGAT (sugars kkkddddddddkekek, PS)	52%
TAATTCTCCTATGCTG (sugars k3 d10 k3, PS)	3%
TCAGTTTGTGAAGCAT (sugars kkkdddddddddkeke, PS)	53%
AAGCAGTGATGTCAGG (sugars kkddddddddddkeke, PS)	74% and 76% and 56%
AAGCTTGATAAAGGCT (sugars kkkddddddddkekek, PS)	-4%
GCCCGGGAGAGCGGAG (sugars k3 d10 k3, PS)	-32%
CTGTTACCGATGCTTC (sugars kkddddddddddkeke, PS)	43% and 37%
CATGGTTACTAATTCC (sugars k3 d10 k3, PS)	25%
ACAGCCGAAGCATTTT (sugars k3 d10 k3, PS)	8%
ACGGAAGTTTACACTG (sugars kkkdddddddddkeke, PS)	13%
CCAAACCTTAAGCTAT (sugars k3 d10 k3, PS)	18% and 34%
ATGTGTATTACTCTTA (sugars kdddddddddkekeke, PS)	36% and 49%
GTGATAGCTGAGCTGA (sugars kdddddddddkekeke, PS)	16%
ACTGCTTGAGGTTTTC (sugars k2 d9 e3 k2, PS)	45%

same assay, conditions: ASO, MM.1R, 4 µM

Sequence	target mRNA inhibition [%]
AAGCAGTGATGTCAGG (sugars kkddddddddddkeke, PS)	87

same assay, conditions: ASO, SK-MEL-28, 0.185 µM

Sequence	target mRNA inhibition
GAGGTTTTCCTAAATA (sugars k3 d10 k3, PS)	20%
GTTCCTTTTCAGAGTC (sugars k3 d10 k3, PS)	16% and 4% and 3%

same assay, conditions: ASO, SK-MEL-28, 4 µM

Sequence	target mRNA inhibition [%]
AGCCAAGAGGTGCGAG (sugars k3 d10 k3, PS)	38
CATTACTAGATTGTAG (sugars k3 d10 k3, PS)	9
TAGAAAGCCCTCACCT (sugars k3 d10 k3, PS)	5
CAACAGTTCAAGTATT (sugars k3 d10 k3, PS)	35
TTCCGTAGTCAGCTCC (sugars k3 d10 k3, PS)	68
GGAATGGCGGATAGAT (sugars k3 d10 k3, PS)	33
CCACATTAGCAATTAG (sugars k3 d10 k3, PS)	19
CAATAATCTCCCAGCA (sugars k3 d10 k3, PS)	37
GCCCATGTGAGCTCTT (sugars k3 d10 k3, PS)	50
GAGCAAATTGAGACCA (sugars k3 d10 k3, PS)	55
CAACAGTGCCAGAGCA (sugars k3 d10 k3, PS)	11
GATATCAAAGATCTCC (sugars k3 d10 k3, PS)	57
TCCTCCTCGCGGTTGT (sugars k3 d10 k3, PS)	59
TGACATGCTTTGTCCT (sugars k3 d10 k3, PS)	59
ACTTTTAGAGAGGAGA (sugars k3 d10 k3, PS)	64
AAATATACCAGCTCAA (sugars k3 d10 k3, PS)	25
CTGCTGCCCAATACAT (sugars k3 d10 k3, PS)	47
CAAGCATAAAAGGTTC (sugars k3 d10 k3, PS)	29
ACCTTATGCTTGGCTC (sugars k3 d10 k3, PS)	31
ACCTGCATCGAGATCA (sugars k3 d10 k3, PS)	53
CCAACGACAGCATAGC (sugars k3 d10 k3, PS)	76
GAGGGTCTGGAAACTC (sugars k4 d8 k4, PS)	8
CAATTAGCTCTTCTAT (sugars k3 d10 k3, PS)	14
GAGGTTTTCCTAAATA (sugars k3 d10 k3, PS)	69
CACCAGGAAACCGCTG (sugars k3 d10 k3, PS)	15
GTTCCTTTTCAGAGTC (sugars k3 d10 k3, PS)	72
GTACACTTTGTACGGG (sugars k3 d10 k3, PS)	64
GGCTCAACCTGGAAGG (sugars k3 d10 k3, PS)	29

same assay, conditions: ASO, SK-MEL-28, 5 µM

Sequence	target mRNA inhibition [%]
GAGGTTTTCCTAAATA (sugars k3 d10 k3, PS)	75

same assay, conditions: ASO, SK-MEL-28, 15 µM

Sequence	target mRNA inhibition [%]
GAGGTTTTCCTAAATA (sugars k3 d10 k3, PS)	89
